From patent US20210315971A1, “COMPOSITIONS ACTING AS PRO(RENIN) RECEPTOR ANTAGONISTS FOR THE TREATMENT OF NON-ALCOHOLIC FATTY LIVER DISEASE” (Board of Regents of the Nevada System of Higher Education …, priority 2018, published 2021)

Legend:
Assay type in all cases: in vivo
Wild-type C57Bl/6J mice = assay: High fat diet induced liver steatosis in mice, Oil Red O staining of liver; conditions: HFD 6 weeks; PRO20 27 ug/kg/d by subcutaneous osmotic pump for 4 weeks; HFD saline 17.57±3.23%, NFD 3.51±0.86%; N=4 mice/group
Description: Non-alcoholic fatty liver steatohepatitis (NASH) represents a diverse array of liver damage linked to obesity, metabolic syndrome, and diabetes. The mechanisms and the treatment for NASH remains lacking. The inventors hypothesized that PRR antagonism using PRO20 prevents NASH development. FIG. 6 illustrates subcutaneous administration of PRR antagonist, PRO20, attenuates high fat diet induced-liver steatosis in mice. Wild-type C57Bl/6J mice were treated with either with either HFD (60% calories from fat) or normal fat chow (NFD, 10% calories from fat) with matching calories for 6 weeks. Two week following diet modification, HFD mice were implanted with subcutaneous osmotic pump containing either PRO20 (27 ug/kg/d) or saline for 4 weeks. Liver tissues were processed for Oil Red 0 staining for lipid accumulation and quantified using Image)/FIJI software. Data were presented % of ORO staining to the total area. N=4 mice/group. *p<0.01 vs. NFD; #P<0.05 vs. HFD Saline; One-way ANOVA. 6 weeks of HFD (17.57±3.23%) induced a significant elevation on liver ORO staining compared with the liver from mice fed with NFD (3.51±0.86%, p=0.005). […] FIG. 7 illustrates subcutaneous administration of PRR antagonist, PRO20, attenuates peroxisome proliferator-activated receptor gamma (PPARγ).

[1] = system: liver renin-angiotensin system; assay: Liver renin-angiotensin system activation induced by high fat diet; conditions: subcutaneous administration, high fat diet mice (FIG. 8)
[2] = system: peroxisome proliferator-activated receptor gamma (PPARγ); assay: Liver PPARγ in high fat diet mice; conditions: subcutaneous administration, high fat diet mice (FIG. 7)
Excerpt: FIG. 7 illustrates subcutaneous administration of PRR antagonist, PRO20, attenuates peroxisome proliferator-activated receptor gamma (PPARγ). […] PRO20 treatment prevents the upregulating of PPARγ in the liver supporting a mechanism for the beneficial role of PRO20 in preventing fatty liver development.
Non-alcoholic fatty liver steatohepatitis (NASH) represents a diverse array of liver damage linked to obesity, metabolic syndrome, and diabetes. The mechanisms and the treatment for NASH remains lacking. The inventors hypothesized that PRR antagonism using PRO20 prevents NASH development. FIG. 6 illustrates subcutaneous administration of PRR antagonist, PRO20, attenuates high fat diet induced-liver steatosis in mice. Wild-type C57Bl/6J mice were treated with either with either HFD (60% calories from fat) or normal fat chow (NFD, 10% calories from fat) with matching calories for 6 weeks. Two week following diet modification, HFD mice were implanted with subcutaneous osmotic pump containing either PRO20 (27 ug/kg/d) or saline for 4 weeks. Liver tissues were processed for Oil Red 0 staining for lipid accumulation and quantified using Image)/FIJI software. Data were presented % of ORO staining to the total area. N=4 mice/group. *p<0.01 vs. NFD; #P<0.05 vs. HFD Saline; One-way ANOVA. […]

With “LPTDTTTFKRIFLKRMPSI (Synthetic (pro)renin receptor agonist peptide) [PRO20]” the “% of ORO staining to the total area (liver lipid accumulation)” value (Wild-type C57Bl/6J mice) was 7.34±1.96%, the “Effect on liver renin-angiotensin system activation induced by high fat diet” value [1] was “prevents activation” and the “Effect on liver PPARγ” value [2] was “attenuates”.
